# US10709769B2, “Use of endostatin peptides for the treatment of fibrosis” (University of Pittsburgh—Of the Commonwealth System of …, priority 2009, dated 2020)
# Key:
# [1] = test system: human primary lung fibroblasts; assay: FN and Col1α1 western blot in TGF-β-treated primary lung fibroblasts; format: cell-based; settings: normal human lung fibroblasts; TGF-β 10 ng/ml 24 h, then 5 μg/ml rE or peptide 48 h; vs TGF-β alone
# Protocol: Human primary lung and skin fibroblasts were cultured. The explanted lungs of normal organ donors, patients with SSc or IPF, and clinically involved skin of SSc patients, a morphea patient and healthy donors were used for primary fibroblast culture. Approximately 2-cm pieces of peripheral lung and skin were minced and fibroblasts were cultured in Dulbecco's modified Eagle's medium (DMEM; Mediatech, Herndon, Va.) supplemented with 10% FBS, penicillin, streptomycin, and anti-mycotic agent, as previously described (Feghali et al., Arthritis Rheum 1999; 42:1451-7). All the cells were used between passages 3-6.
# Cellular lysates were obtained from cultured fibroblasts as previously described (Pilewski et al., Am J Pathol 2005; 166:399-407). Briefly, 2.0×10^5 primary fibroblasts were cultured in 35-mm wells in 0.5% FBS-containing medium supplemented with 10 ng/ml of human recombinant TGF-β or PBS as vehicle control for 24 h, following which 5 μg/ml of human rE, endostatin peptides (E1-E4), or DMSO (vehicle) was added for 48 h. In some experiments, endostatin peptides were used without TGF-β stimulation. Cellular lysates were analyzed by western blot. Signals were detected following incubation with horseradish peroxidase-conjugated secondary antibody and chemiluminescence (Perkin Elmer Life Sciences, Inc., Boston, Mass.). The intensity of individual bands with expected molecular sizes was semi-quantitatively analyzed using the image/J® software available at on the internet (/rsb.info.nih.gov/ij/index.html), and normalized to individual GAPDH intensity.
# To evaluate whether endostatin modulates production of ECM components in fibroblasts, FN and Col1α1 expression was examined in normal human lung fibroblasts by western blot analysis. Cells were treated with 5 µg/ml rE for 48 h with or without pre-stimulation with human TGF-β for 24 h. […] To define the functional domain of endostatin that mediates its inhibitory effect, four different peptides were synthesized corresponding to different regions of endostatin (Table 1).
# [2] = test system: mouse lung; assay: Bleomycin-induced pulmonary fibrosis in mice; format: in vivo; settings: for fibrosis and Masson Trichrome staining: 10 μg/ml intratracheally, lungs harvested 10 days
# Protocol: FIG. 10A-10C. E4 attenuates bleomycin induced lung fibrosis in vivo. A: Sixty μg of bleomycin was administrated intratracheally in combination with DMSO as a vehicle (Bleo) or E-4 (Bleo+E-4; 10 μg/ml). In some mice, E-4 (10 μg/ml) was administered intratracheally (IT) three days following bleomycin treatment (Bleo+E-4L). PBS was used as a vehicle for bleomycin (V). Lungs were harvested 10 days post-treatment. Representative images stained with H&E (left panel) and Masson trichrome (right panel) are representative of 3 independent experiments. Magnification, 100×. […] B: Quantification of acid soluble collagen obtained from mouse lungs treated as in panel C with V, Bleo, Bleo+E-4, and Bleo+E-4L. The levels of collagen are presented as μg/mg (lung) from three independent experiments. Unpaired-t test was used for statistical analysis. * P<0.05. […] For Bleo+E4L, Bleo was administered first, then there was a lag of three days between Bleo and E4 administration).
# FIG. 11. E4 attenuates bleomycin induced lung fibrosis in vivo whether administered intraperitoneally (IP) or intratracheally (IT). Bleomycin was administered IT at day 1, and E4 was administered either IP or IT at day 3. Lungs were harvested at day 21. […] Thus E4 is effective at reducing fibrosis irrespective of the route of administration. Results are shown for vehicle alone (V), bleomycin alone (Bleo), bleomycin and E4 administered IP, and bleomycin and E4 administered IT.
# E4, a peptide representing the carboxy terminus of human endostatin, can attenuate fibrosis triggered by multiple fibrogenic factors. The anti-fibrotic effects of E4 can be detected whether administered concomitantly with or following the fibrogenic trigger. The efficacy of E4 was confirmed in […] pre-clinical models of fibrosis: a) bleomycin-induced dermal fibrosis in vivo in mouse skin, b) TGF-β induced dermal fibrosis in mouse skin, and c) bleomycin-induced pulmonary fibrosis. E4 peptide or a control peptide (E1; representing the amino terminal region of endostatin) were administered at the same time as TGF-β or bleomycin or 3-4 days following TGF-β or bleomycin. […]
# For these studies, fibrosis was assessed by measurement of dermal thickness on H&E skin sections (skin), assessment of collagen levels by Masson Trichrome staining (skin and lung), and measurement of collagen levels by Sircol assay (lung). Furthermore, to confirm the mechanism by which E4 exerts its anti-fibrotic effects, the production of extra-cellular matrix (ECM) components, the levels of enzymes that promote matrix stabilization and thus accumulation and levels of those that degrade ECM components, and levels of transcription factors downstream of the pro-fibrotic triggers were evaluated. Results were assessed using the unpaired t test and the 3-way ANOVA (for the ID1 data).
# [3] = test system: normal lung fibroblasts; assay: α-SMA levels in TGF-β-stimulated normal lung fibroblasts; format: cell-based, human; settings: peptide following TGF-β stimulation
# Description: FIGS. 1A-1F. ECM production in recombinant endostatin- and endostatin-derived peptide-treated fibroblasts in combination with TGF-β stimulation. A: FN and Col1α1 expression in human normal lung fibroblasts (NL) treated with vehicle (V), rE alone, or both with prior TGF-β stimulation. Proteins were detected western blot. GAPDH was used as a loading control for lysates. B: FN and Col1α1 expression of endostatin polypeptide-treated lung fibroblasts following TGF-β stimulation in primary pulmonary fibroblasts from a healthy control, a patient with SSc, and a patient with IPF. […] Intensity of bands was normalized to that of GAPDH and expressed as a ratio to Vehicle (V). […]
# Cellular lysates were obtained from cultured fibroblasts as previously described (Pilewski et al., Am J Pathol 2005; 166:399-407). […] Cellular lysates were analyzed by western blot. Signals were detected following incubation with horseradish peroxidase-conjugated secondary antibody and chemiluminescence (Perkin Elmer Life Sciences, Inc., Boston, Mass.). The intensity of individual bands with expected molecular sizes was semi-quantitatively analyzed using the image/J® software available at on the internet (/rsb.info.nih.gov/ij/index.html), and normalized to individual GAPDH intensity. […]
substance,measurement,setting,value
"H-^133SYCETWRTEAPSATGQASSLLGGRLLGQSAASCHHAYIVLCIENSFMT^180-CONH2 (H-SYCETWRTEAPSATGQASSLLGGRLLGQSAASCHHAYIVLCIENSFMT-NH2; cysteine pairing not given here; UniProt P39060 1704-1751, looked up, fragment) [E4, amino acids 133-180 of human endostatin; differs from E3 by the presence of a carboxy-terminal amide]",FN and Col1α1 levels/production,[1],significantly suppressed
same,fibrosis and Masson Trichrome staining,[2]; concomitantly with bleomycin,marked reduction
same,fibrosis and Masson Trichrome staining,[2]; three days following bleomycin,marked reduction
same,bleomycin induced lung fibrosis,"[2]; intraperitoneal at day 3, lungs harvested day 21",significant attenuation
same,bleomycin induced lung fibrosis,"[2]; intratracheal at day 3, lungs harvested day 21",significant attenuation
same,TGF-β-induced α-SMA levels,[3],decreased
